In patent US9289414B2 (priority 2004, dated 2016):

Tests used:
[1] = test system: SVR cells; test: SVR cell proliferation / viability bioassay (angiogenic bioassay); type: cell-based, murine; settings: FIG. 1
Protocol: Liquid extract of coal tar was concentrated under vacuum to get crude extract (20.0 mg). This extract was applied on a Sephadex LH 20 (3.0×100 cm) column and eluted with MeOH. The elution was monitored by TLC and similar fractions are combined to get 11 fractions. This fraction was assayed for inhibition of SVR cell viability (Arbiser et al. (1999) J. Am. Acad. Dermatol. 40, 925-929; and Bai et al. (2003) J. Biol. Chem. 278, 35501-35507). […] These changes are similar to what is observed when SVR cells are treated with an EGFR tyrosine kinase inhibitor.
Coal tar fractions were tested for their ability to inhibit the proliferation of SVR cells, an established angiogenic bioassay.

[2] = test system: EGFR; test: Drosophila EGFR eye phenotype assay; type: in vivo, Drosophila melanogaster; settings: treatment of mutant Drosophila
Text: The epidermal growth factor receptor pathway controls cell fate throughout phylogeny. Binding of secreted ligands to EGFR on the cell surface initiates a cascade of events that ultimately invokes transcriptional changes in the nucleus. Ligand/receptor interactions are of critical importance during Drosophila eye development, as recruitment and differentiation of almost all photoreceptors are dependent on high levels of activation of the EGFR pathway. Binding of activating ligand to EGFR results in a cascade of membranous and cytoplasmic phosphorylation events.
(§1) In order to test whether carbazole and its derivatives affect EGFR, the compounds were tested using a novel EGFR assay that is amenable to high throughput screening.

[3] = test system: Drosophila embryos; test: Normal development of Drosophila embryos; set-up: species or system Drosophila melanogaster; settings: in vivo
Protocol: as §1

[4] = test system: iNOS; test: iNOS expression, in vitro translation and Western blot of HEK293 and RAW264.7 cells; type: cell-based; settings: FIG. 3A-C
Protocol: Reactions were performed at 30° C. for 90 min. Translation products were separated by SDS/PAGE, and bands, representing ^35S-labeled iNOS, were detected by Phosphoimager (Molecular Dynamics). The data shown in FIG. 3A represent two independent experiments done in duplicates.
Transfection and stable cell line production of HEK293 cells was performed by cationic lipid-mediated transient transfection using “LipofectAMINE 2000” (Invitrogen) following manufacturer's instructions. Stable cell line expressing iNOS, were produced by using transfection of iNOS cDNA followed by positive colony selection using G418 (Invitrogen) at concentration of 600 μg/ml. iNOS Induction of mouse macrophages RAW264.7, involved incubating the cells with a mixture of mouse interferon (mIFN)-γ (10 u/ml) and LPS (100 ng/ml).
Cell lysis was performed on collected cells. After gently rinsing the cells twice with phosphate-buffered saline, the cell layer was lysed on ice for 30 min in 40 mM Bis-Tris propane buffer, pH 7.7, 150 mM NaCl, 10% glycerol, 1% Triton-X100 in the presence of protease inhibitors (phenylmethylsulfonyl fluoride (1 mM), pepstatin-A (10 μg/ml), leupeptin (10 μg/ml), aprotinin (10 μg/ml), phenanthroline (10 μg/ml), benzamidine HCl (16 μg/ml)) (PharMingen). […] Total protein concentrations were determined by using a bicinchoninic acid reagent, following the manufacturer's instructions (Pierce). […]

[5] = test system: signaling lymphocyte activator molecule associated protein (SAP); test: PSK-induced SAP expression in lymphocytes; type: cell-based, human; settings: FIG. 2B
[6] = test system: interleukin-15 (IL-15); test: IL-15 production by PSK-activated mononuclear cells; type: cell-based, human; settings: PSK-stimulated mononuclear cells, FIG. 2A
Text: Cytokine production by mononuclear cells plays an important role in psoriasis. One of the cardinal cytokines involved in the pathogenesis of psoriasis is interleukin-15 (IL-15). IL-15 plays several roles that may be important in psoriasis. […] In addition, IL-15 is angiogenic in vivo.

[7] = test system: Rac; test: Rac activation in HUVEC after VEGF stimulation (PAK-1 PBD pull-down); type: cell-based, human; settings: carbazole 5 mg/ml pretreatment 1 hr, VEGF 20 ng/ml 5 min, FIG. 5
Protocol: Cells were lysed with ice-cold lysis buffer, pH 7.5, containing 25 mmol/liter HEPES, 150 mmol/liter NaCl, 1% IGEPAL CA-630, 0.25% sodium deoxycholate, 10 mmol/liter MgCl2, 10% glycerol, 25 mmol/liter NaF, 1 mmol/liter EDTA, 1 mmol/liter sodium orthovanadate, 10 μg/ml leupeptin, 10 μg/ml aprotinin, and 1 mmol/liter phenylmethylsulfonyl fluoride. Activated (GTP-bound) Rac was affinity-precipitated with p21-activated kinase-1 protein binding domain peptide, which binds only to Rac-GTP and not Rac-GDP.
p21-Activated kinase-1 protein binding domain-agarose (7.5 μg/mg cell lysate, Upstate Biotechnology) was added, and the reaction mixture was gently rocked at 4° C. for 60 min. The agarose beads were collected by pulsing for 5 s in a microcentrifuge at 14,000×g, and the beads were washed three times with 0.5 ml of lysis buffer. The agarose beads were resuspended in 40 μl of 1×SDS sample buffer and boiled for 5 min. The supernatant was separated by SDS-PAGE on a 12% gel, and the proteins were transferred to nitrocellulose membrane. After blocking for 1 h in PBS containing 5% nonfat dry milk and 0.1% Tween 20, the membrane was incubated with anti-Rac antibody (1:1000 dilution, Upstate Biotechnology) overnight. After incubation with the secondary antibody, Rac was detected by enhanced chemiluminescence.

Structure (SMILES) | antiproliferative activity [1] | effect on eye phenotype of mutant Drosophila with active EGFR [2] | effect on normal development of Drosophila embryos [3] | levels of nitric oxide synthase enzyme [4] | SAP expression [5] | production of IL-15 [6] | rac activation in response to VEGF [7]
Oc1ccc2c(c1)[nH]c1ccccc12 [2-hydroxy carbazole, 2-hydroxycarbazole] | more potent antiproliferative activity | – | – | – | – | – | –
Oc1ccc2[nH]c3ccccc3c2c1 [3-hydroxy carbazole, 3-hydroxycarbazole] | more potent antiproliferative activity | – | – | – | – | – | –
Oc1cccc2[nH]c3ccccc3c12 [4-hydroxy carbazole, 4-hydroxycarbazole] | more potent antiproliferative activity | correction of the phenotypic defect | no effect | – | – | – | –
c1ccc2c(c1)[nH]c1ccccc12 [carbazole, 9H-Carbazole] | mild antiproliferative activity | correction of the phenotypic defect | no effect | without affecting levels of enzyme | inhibited | inhibited production of IL-15 | blocks rac activation
